Assay results: paper PMC6585649 (Clinical Pharmacology in Drug Development, 2018)
Read-outs that look alike come from different tables or passages of the source.

Key:
[1] = Multiple-dose; assay type: in vivo, human (healthy subjects); conditions: for AUC(0-t) / Cmax / half-life at 7 days: human, plasma, oral; for AUC(0-t): AUC0–24, steady state (day 7); for Cmax: steady state (day 7); for half-life at 7 days: t1/2, steady state; for Cmin: steady state (day 7, 24-hour period)
[2] = assay type: in vivo; conditions: human, not told, po
[3] = cited from earlier work
[4] = 6 and 12 mg twice daily, IR formulation, background methotrexate; cited from earlier work
[5] = system: CYP2D6; conditions: in vitro; cited from earlier work
[6] = assay type: in vivo, human (healthy subjects); conditions: for AUC(0-t) / AUC(0-inf) / Cmax / half-life: human, plasma, oral; for AUC(0-t): AUCt
[7] = system: cytochrome P450 (CYP) 3A; conditions: in vitro; cited from earlier work
[8] = cited from earlier work; remark: listed apart in the source
[9] = cited from earlier work; remark: listed apart in the source
[10] = 6 mg, 6 mg twice-daily IR, fasting, n = 11, mean ± SD
[11] = 12 mg, 12 mg twice-daily IR, fasting, n = 11, mean ± SD
[12] = 15 mg, 15 mg once-daily ER, fasting, n = 12, mean ± SD
[13] = 15 mg, 15 mg once-daily ER, nonfasting, n = 12, mean ± SD
[14] = 30 mg, 30 mg once-daily ER, fasting, n = 11, mean ± SD
[15] = 30 mg, 30 mg once-daily ER, nonfasting, n = 12, mean ± SD
[16] = 12 mg, single 12 mg IR, fasting, n = 11, mean ± SD
[17] = 15 mg, single 15 mg ER, fasting, n = 11, mean ± SD
[18] = 24 mg, single 24 mg IR, fasting, n = 12, mean ± SD
[19] = 30 mg, single 30 mg ER after high-fat breakfast, n = 12, mean ± SD
[20] = 30 mg, single 30 mg ER, fasting, n = 12, mean ± SD

difference of central values for Cmax and Cmin, ER once daily vs IR twice daily ([1]; 15 and 30 mg once daily vs 6 and 12 mg twice daily, fasting, steady state): ≤ 13%
AUC(0-t) [1, 10]: 288 ± 63.5 ng·h/mL
Cmax [1, 10]: 33.9 ± 8.8 ng/mL
half-life at 7 days [1, 10]: 24.5 ± 18.1 h
AUC(0-t) [1, 11]: 534 ± 97.8 ng·h/mL
Cmax [1, 11]: 73.9 ± 14.2 ng/mL
half-life at 7 days [1, 11]: 11.5 ± 9.2 h
AUC(0-t) [1, 12]: 279 ± 71.4 ng·h/mL
AUC(0-t) [1, 13]: 317 ± 68.1 ng·h/mL
Cmax [1, 12]: 31.9 ± 11.2 ng/mL
Cmax [1, 13]: 36 ± 8.8 ng/mL
half-life at 7 days [1, 12]: 16.9 ± 12 h
half-life at 7 days [1, 13]: 15.1 ± 10.1 h
AUC(0-t) [1, 14]: 525 ± 123 ng·h/mL
AUC(0-t) [1, 15]: 582 ± 172 ng·h/mL
Cmax [1, 14]: 68.2 ± 20.5 ng/mL
Cmax [1, 15]: 79.5 ± 31.8 ng/mL
half-life at 7 days [1, 14]: 22.9 ± 21.1 h
steady state achieved by day ([1]; once-daily dosing of ER formulation, predose concentrations): ≤ 4 days
Cmin ([1]; 6 mg twice-daily IR, fasting, n = 11, mean ± SD): 2.7 ± 0.6
Cmin ([1]; 12 mg twice-daily IR, fasting, n = 11, mean ± SD): 3.8 ± 2.2
Cmin ([1]; 15 mg once-daily ER, fasting, n = 12, mean ± SD): 3.1 ± 1.1
Cmin ([1]; 15 mg once-daily ER, nonfasting, n = 12, mean ± SD): 2.8 ± 1.2
Cmin ([1]; 30 mg once-daily ER, fasting, n = 11, mean ± SD): 3.8 ± 1.6
Cmin ([1]; 30 mg once-daily ER, nonfasting, n = 12, mean ± SD): 4.6 ± 1.8
bioavailability [2]: 70 to 80%
increase in AUC and Cmax after a high-fat meal compared with fasting ([6]; ER formulation): ~20%
AUC(0-t) [6, 16]: 231 ± 34.5 ng·h/mL
AUC(0-inf) [6, 16]: 234 ± 34.6 ng·h/mL
Cmax [6, 16]: 64.6 ± 10.3 ng/mL
half-life ([6]; 12 mg, t1/2, single 12 mg IR, fasting, n = 11, mean ± SD): 18.3 ± 13.3 h
AUC(0-t) [6, 17]: 227 ± 60 ng·h/mL
AUC(0-inf) [6, 17]: 242 ± 63.6 ng·h/mL
half-life ([6]; 15 mg, t1/2, single 15 mg ER, fasting, n = 11, mean ± SD): 21.9 ± 23.1 h
AUC(0-inf) [6, 18]: 524 ± 133 ng·h/mL
Cmax [6, 18]: 176 ± 65.6 ng/mL
half-life ([6]; 24 mg, t1/2, single 24 mg IR, fasting, n = 12, mean ± SD): 15.3 ± 13.6 h
AUC(0-t) [6, 19]: 564 ± 145 ng·h/mL
AUC(0-t) [6, 20]: 477 ± 130 ng·h/mL
AUC(0-inf) [6, 20]: 491 ± 133 ng·h/mL
Cmax [6, 19]: 76.8 ± 29.6 ng/mL
Cmax [6, 20]: 63.7 ± 21.1 ng/mL
half-life ([6]; 30 mg, t1/2, single 30 mg ER after high-fat breakfast, n = 12, mean ± SD): 15.9 ± 11 h
half-life ([6]; 30 mg, t1/2, single 30 mg ER, fasting, n = 12, mean ± SD): 18.1 ± 14.5 h
SMILES: CC[C@@H]1CN(C(=O)NCC(F)(F)F)C[C@@H]1c1cnc2cnc3[nH]ccc3n12 [Upadacitinib]
decrease in upadacitinib AUC with rifampin ([3]; CYP inducer rifampin): 60%
decrease of Cmax by food ([3]; IR formulation): approximately 20%
impact of food on AUC ([3]; IR formulation): no impact
increase in upadacitinib AUC with ketoconazole ([3]; strong CYP3A inhibitor ketoconazole): 75%
efficacy in subjects with RA [4]: maximal efficacy
contribution of CYP2D6 to metabolism [5]: minor contribution
substrate of CYP3A [7]: nonsensitive substrate
effect of CYP2D6 metabolic phenotype on apparent oral clearance [8]: no effect
residual error in upadacitinib concentrations [8]: 31%
intersubject variability of apparent central volume of distribution ([8]; healthy subjects): 14%
intersubject variability of apparent oral clearance ([8]; healthy subjects): 16%
higher AUC compared with subjects with normal renal function ([8]; mild renal impairment, estimated): 16%
higher AUC compared with subjects with normal renal function ([8]; moderate renal impairment, estimated): 32%
apparent oral clearance lower in RA patients compared with healthy subjects ([8]; population pharmacokinetic analyses, estimated): 24%
intersubject variability of apparent central volume of distribution ([8]; subjects with RA): 27%
intersubject variability of apparent oral clearance ([8]; subjects with RA): 26%
dose eliminated unchanged in urine ([9]; IR formulation): approximately 20%
time to maximum plasma concentration ([9]; IR formulation): ≤ 2 h
accumulation in plasma ([9]; twice-daily dosing of the IR formulation): no significant accumulation
